Among the data in patent publication US8268814B2, “Substituted sulfonamide compounds” (Gruenenthal GmbH, priority 2008, dated 2012) are inhibition values, retold here.

This assay addresses T1, B1R receptor of the rat (rB1R) (Rattus norvegicus, UniProt P97583).
T1 construct: expressed in transfected cells; host or cells: CHO K1 cells (Chinese hamster ovary), stably transfected
T1 sequence (P97583 1-337): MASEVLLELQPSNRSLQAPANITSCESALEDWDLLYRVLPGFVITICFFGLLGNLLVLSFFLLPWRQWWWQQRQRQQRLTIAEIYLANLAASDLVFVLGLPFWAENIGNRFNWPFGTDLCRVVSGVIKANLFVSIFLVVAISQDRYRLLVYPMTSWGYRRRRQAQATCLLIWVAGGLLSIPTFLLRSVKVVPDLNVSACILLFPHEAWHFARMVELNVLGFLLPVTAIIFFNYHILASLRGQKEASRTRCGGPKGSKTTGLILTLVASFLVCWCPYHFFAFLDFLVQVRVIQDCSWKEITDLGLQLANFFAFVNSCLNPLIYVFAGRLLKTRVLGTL
The experiment in a line: Functional FLIPR Ca2+ assay on the bradykinin 1 receptor, rat (rB1R CHO K1 cells). Particulars: test substance 10 μM; CHO K1 cells transfected with rat B1R gene; agonist Des-Arg9-bradykinin at EC80; % inhibition compared with maximum achievable inhibition; read-out: B1R antagonism, rat [10 μM] % inhibition. The assay is classed as cell-based. On the procedure:
The agonistic or antagonistic action of substances can be quantified on the bradykinin 1 receptor (B1R) of the human and rat species with ectopically expressing cell lines (CHO K1 cells) and with the aid of a Ca^2+-sensitive dyestuff (Fluo-4) in a fluorescent imaging plate reader (FLIPR). The figure in % activation is based on the Ca^2+ signal after addition of Lys-Des-Arg^9-bradykinin (0.5 nM) or Des-Arg^9-bradykinin (100 nM). Antagonists lead to a suppression of the Ca^2+ inflow after addition of the agonist. % inhibition compared with the maximum achievable inhibition is stated.
The agonistic or antagonistic action of substances can be determined on the bradykinin 1 receptor (B1R) of the human and rat species with the following assay. In accordance with this assay, the Ca^2+ inflow through the channel is quantified with the aid of a Ca^2+-sensitive dyestuff (type Fluo-4, Molecular Probes Europe BV, Leiden, Holland) in a fluorescent imaging plate reader (FLIPR, Molecular Devices, Sunnyvale, USA).
Chinese hamster ovary cells (CHO K1 cells) transfected stably with the human B1R gene (hB1R cells) or the B1R gene of the rat (rB1R cells) are used. For functional studies, these cells are plated out on black 96-well plates with a clear base (BD Biosciences, Heidelberg, Germany or Greiner, Frickenhausen, Germany) in a density of 20,000-35,000 cells/well. The cells are left overnight at 37° C. and 5% CO2 in culture medium (hB1R cells: Nutrient Mixture Ham's F12, Gibco Invitrogen GmbH, Karlsruhe, Germany or DMEM, Sigma-Aldrich, Taufkirchen, Germany; rB1R cells: D-MEM/F12, Gibco Invitrogen GmbH, Karlsruhe, Germany) with 10 vol. % FBS (foetal bovine serum, Gibco Invitrogen GmbH, Karlsruhe, Germany or PAN Biotech GmbH, Aidenbach, Germany). On the following day, the cells are loaded for 60 min at 37° C. with 2.13 μM Fluo-4 (Molecular Probes Europe BV, Leiden, Holland) in HBSS buffer (Hank's buffered saline solution, Gibco Invitrogen GmbH, Karlsruhe, Germany) with 2.5 mM probenecid (Sigma-Aldrich, Taufkirchen, Germany) and 10 mM HEPES (Sigma-Aldrich, Taufkirchen, Germany). The plates are then washed 2× with HBSS buffer, and HBSS buffer which additionally contains 0.1% BSA (bovine serum albumin; Sigma-Aldrich, Taufkirchen, Germany), 5.6 mM glucose and 0.05% gelatine (Merck KgaA, Darmstadt, Germany) is added. After a further incubation of 20 minutes at room temperature, the plates are inserted into the FLIPR for the Ca^2+ measurement.
Alternatively, the plates are washed with buffer A (15 mM HEPES, 80 mM NaCl, 5 mM KCl, 1.2 mM CaCl2, 0.7 mM MgSO4, 2 g/l glucose, 2.5 mM probenecid), buffer A is added and the plates are loaded with 2.5 μM Fluo-4 and 0.025% Pluronic F127 (Sigma-Aldrich, Taufkirchen, Germany). Thereafter, the cells are washed 2× with buffer A and incubated for 30 minutes with buffer A, which additionally contains 0.05% BSA and 0.05% gelatine, at room temperature and thereafter inserted into the FLIPR for the Ca^2+ measurement. The Ca^2+-dependent fluorescence is measured here before and after addition of substances (λex=488 nm, λem=540 nm). Quantification is by measurement of the highest fluorescence intensity (FC, fluorescence counts) over time.
The FLIPR protocol consists of 2 additions of substance. Test substances (10 μM) are first pipetted on to the cells and the Ca^2+ inflow is compared with the control (hB1R: Lys-Des-Arg^9-bradykinin >=50 nM; rB1R: Des-Arg^9-bradykinin 10 μM). This gives the figure in % activation based on the Ca^2+ signal after addition of Lys-Des-Arg^9-bradykinin (>=50 nM) or Des-Arg^9-bradykinin (10 μM). After incubation for 10-20 minutes, Lys-Des-Arg^9-bradykinin (hB1R) or Des-Arg^9-bradykinin (rB1R) in the concentration of the EC80 is applied and the inflow of Ca^2+ is likewise determined. Antagonists lead to a suppression of the Ca^2+ inflow. % inhibition compared with the maximum achievable inhibition is calculated. In order to determine the IC50 value, the substances are added in various concentrations. […]

Each structure is given as a SMILES string.

For `Cc1cc(S(=O)(=O)N2CCCCC2CCC(=O)N2CCc3onc(C(=O)N4CCCCC4)c3C2)c(C)cc1Cl` (stereo not shown) [Example 04, 3-(1-(4-chloro-2,5-dimethylphenylsulfonyl)piperidin-2-yl)-1-(3-(piperidine-1-carbonyl)-6,7-dihydroisoxazolo[4,5-c]pyridin-5(4H)-yl)propan-1-one], the inhibition (in general, the relative decrease from the control value, in per cent) at 10 µM amounted to 56%.
Consider `COc1cc(C)c(S(=O)(=O)N(C)CCOCC(=O)N2CCc3[nH]cnc3C2c2ccccc2)c(C)c1` (stereo not shown) [Example 66, 4-Methoxy-N,2,6-trimethyl-N-[2-[2-oxo-2-(4-phenyl-4,5,6,7-tetrahydro-1H-imidazo[4,5-c]pyridin-5-yl)-ethoxy]-ethyl]-benzenesulfonic acid amide], for which the inhibition at 10 µM amounted to 97%.
With `Cc1cccc(Cl)c1S(=O)(=O)N1CCCCC1CCCC(=O)N1CCc2sc(CN3CCN(C)CC3)cc2C1` (stereo not shown) [Example 68, 4-[1-[(2-Chloro-6-methyl-phenyl)sulfonyl]-piperidin-2-yl]-1-[2-[(4-methyl-piperazin-1-yl)-methyl]-4,5,6,7-tetrahydro-thieno[3,2-c]pyridin-5-yl]-butan-1-one] the figure was 103%; with `Cc1cccc(Cl)c1S(=O)(=O)N1CCCCC1CCCC(=O)N1CCc2[nH]cnc2C1c1ccccc1` (stereo not shown) [Example 69, 4-[1-[(2-Chloro-6-methyl-phenyl)sulfonyl]-piperidin-2-yl]-1-(4-phenyl-4,5,6,7-tetrahydro-1H-imidazo[4,5-c]pyridin-5-yl)-butan-1-one], 64%; with `COc1cc(C)c(S(=O)(=O)N2CCCCC2CCCC(=O)N2CCc3[nH]cnc3C2c2ccccc2)c(C)c1` (stereo not shown) [Example 71, 4-[1-[(4-Methoxy-2,6-dimethyl-phenyl)sulfonyl]-piperidin-2-yl]-1-(4-phenyl-4,5,6,7-tetrahydro-1H-imidazo[4,5-c]pyridin-5-yl)-butan-1-one], 101%.
With `CN1CCN(Cc2cc3c(s2)CCN(C(=O)CCCC2CCCCN2S(=O)(=O)c2cccc4ccccc24)C3)CC1` (stereo not shown) [Example 73, 1-[2-[(4-Methyl-piperazin-1-yl)-methyl]-4,5,6,7-tetrahydro-thieno[3,2-c]pyridin-5-yl]-4-[1-(naphthalen-1-ylsulfonyl)-piperidin-2-yl]-butan-1-one] the figure was 99%; with `O=C(CCCC1CCCCN1S(=O)(=O)c1cccc2ccccc12)N1CCc2[nH]cnc2C1c1ccccc1` (stereo not shown) [Example 74, 4-[1-(Naphthalen-1-ylsulfonyl)-piperidin-2-yl]-1-(4-phenyl-4,5,6,7-tetrahydro-1H-imidazo[4,5-c]pyridin-5-yl)-butan-1-one], 95%; with `CN1CCN(Cc2cc3c(s2)CCN(C(=O)CCCC2CCCCN2S(=O)(=O)c2ccc4ccccc4c2)C3)CC1` (stereo not shown) [Example 75, 1-[2-[(4-Methyl-piperazin-1-yl)-methyl]-4,5,6,7-tetrahydro-thieno[3,2-c]pyridin-5-yl]-4-[1-(naphthalen-2-ylsulfonyl)-piperidin-2-yl]-butan-1-one], 103%.
With `O=C(CCCC1CCCCN1S(=O)(=O)c1ccc2ccccc2c1)N1CCc2[nH]cnc2C1c1ccccc1` (stereo not shown) [Example 76, 4-[1-(Naphthalen-2-ylsulfonyl)-piperidin-2-yl]-1-(4-phenyl-4,5,6,7-tetrahydro-1H-imidazo[4,5-c]pyridin-5-yl)-butan-1-one] the figure was 48%.
As for `COc1cc(C)c(S(=O)(=O)N(CCOCC(=O)N2CCc3sc(CN4CCN(C)CC4)cc3C2)Cc2ccc3c(c2)OCOC3)c(C)c1` [Example 78, N-(4H-[1,3]Benzodioxin-7-yl-methyl)-4-methoxy-2,6-dimethyl-N-[2-[2-[2-[(4-methyl-piperazin-1-yl)-methyl]-4,5,6,7-tetrahydro-thieno[3,2-c]pyridin-5-yl]-2-oxo-ethoxy]-ethyl]-benzenesulfonic acid amide], the inhibition at 10 µM is 98%.
As to `COc1cc(C)c(S(=O)(=O)N(CCOCC(=O)N2CCc3sc(CN4CCN(C)CC4)cc3C2)Cc2ccccc2)c(C)c1` [Example 81, N-Benzyl-4-Methoxy-2,6-dimethyl-N-[2-[2-[2-[(4-methyl-piperazin-1-yl)-methyl]-4,5,6,7-tetrahydro-thieno[3,2-c]pyridin-5-yl]-2-oxo-ethoxy]-ethyl]-benzenesulfonic acid amide], the inhibition at 10 µM came to 102%.
With `COc1cc(C)c(S(=O)(=O)N(CCOCC(=O)N2CCc3[nH]cnc3C2c2ccccc2)Cc2ccccc2)c(C)c1` (stereo not shown) [Example 82, N-Benzyl-4-Methoxy-2,6-dimethyl-N-[2-[2-oxo-2-(4-phenyl-4,5,6,7-tetrahydro-1H-imidazo[4,5-c]pyridin-5-yl)-ethoxy]-ethyl]-benzenesulfonic acid amide] the figure was 100%; with `COc1cc(C)c(S(=O)(=O)N(CCOCC(=O)N2CCc3sc(CN4CCN(C)CC4)cc3C2)c2ccccc2)c(C)c1` [Example 83, 4-Methoxy-2,6-Dimethyl-N-[2-[2-[2-[(4-methyl-piperazin-1-yl)-methyl]-4,5,6,7-tetrahydro-thieno[3,2-c]pyridin-5-yl]-2-oxo-ethoxy]-ethyl]-N-phenyl-benzenesulfonic acid amide], 101%; with `COc1cc(C)c(S(=O)(=O)N(CCOCC(=O)N2CCc3[nH]cnc3C2c2ccccc2)c2ccccc2)c(C)c1` (stereo not shown) [Example 84, 4-Methoxy-2,6-Dimethyl-N-[2-[2-oxo-2-(4-phenyl-4,5,6,7-tetrahydro-1H-imidazo[4,5-c]pyridin-5-yl)-ethoxy]-ethyl]-N-phenyl-benzenesulfonic acid amide], 97%.
Consider `COc1cc(C)c(S(=O)(=O)N2c3ccccc3CCC2COCC(=O)N2CCc3sc(CN4CCN(C)CC4)cc3C2)c(C)c1` (stereo not shown) [Example 85, 2-[[1-[(4-Methoxy-2,6-dimethyl-phenyl)sulfonyl]-1,2,3,4-tetrahydro-quinolin-2-yl]-methoxy]-1-[2-[(4-methyl-piperazin-1-yl)-methyl]-4,5,6,7-tetrahydro-thieno[3,2-c]pyridin-5-yl]-ethanone], for which the inhibition at 10 µM turned out to be 102%.
For the compound `COc1cc(C)c(S(=O)(=O)N2c3ccccc3CCC2COCC(=O)N2CCc3[nH]cnc3C2c2ccccc2)c(C)c1` (stereo not shown) [Example 86, 2-[[1-[(4-Methoxy-2,6-dimethyl-phenyl)sulfonyl]-1,2,3,4-tetrahydro-quinolin-2-yl]-methoxy]-1-(4-phenyl-4,5,6,7-tetrahydro-1H-imidazo[4,5-c]pyridin-5-yl)-ethanone], the inhibition at 10 µM is 96%.
